Reference: US20120107916A1, “METHODS AND COMPOSITIONS FOR AFFECTING THE DIFFERENTIATION OF CLOSTRIDIA IN CULTURE” (priority 2009, published 2012)

How the values were obtained:
[1] = tested on: Clostridium acetobutylicum ATCC 824; assay: Final pH of cell-free culture supernatants of sequential batch cultures; type: cell-based
Procedure: (§1) Bacterial strains and media. Clostridium acetobutylicum ATCC 824 and C. beijerinckii NCIMB 8052 are available from several commercial microbial culture collections including the American Type Culture Collection (ATCC), Manassas, Va., USA. The strains were grown at 30° C. or 37° C. in YE broth, which contained, per liter: 5.0 g yeast extract, 2.5 g casamino acids, 1.0 g L-asparagine, 0.5 g cysteine.HCl, 56 mg K2HPO4, 56 mg KH2PO4, 82 mg anhydrous MgSO4, 8 mg FeSO4.H2O, 6 mg MnSO4.H2O and 10 g glucose. Alternatively, strains were grown in YEPG broth, which was identical to YE expect that K2HPO4 and KH2PO4 were increased to 145 mg/L each and glucose was increased to 60 g/L. The pH of the media was adjusted to 7.2 using 45% KOH prior to sterilization by autoclaving. Media were solidified by addition of 1.5% Bacteriological Agar, Actimedia Manufacturers, Inc., Lansing, Mich. All cultures were grown in anaerobic conditions using the AnaeroPack System, Mitsubishi Gas Chemical Co., Inc., Japan, and GasPak EZ Gas Generating Sachets, Becton, Dickinson and Co., Sparks, Md. Spore stocks were kept at room temperature on agar-solidified media and were activated by suspending spores in 0.5 mL to 1.0 mL of medium followed by heating for 10 min at 80° C. before inoculation into growth medium.
(§2) Growth and pH measurements. Growth of bacterial cultures was measured spectrophotometrically using optical density at 600 nm and pH of cell-free culture supernatants was measured using a hand-held Shindengen ISFET pH Meter KS501, Shendengen Electric Manufacturing Co., Ltd., Bannockburn, Ill.
(§3) Effect of peptide SEQ ID NO:143 addition on sequential batch cultures of C. acetobutylicum ATCC 824 grown at 30° C. Spores of C. acetobutylicum ATCC 824 were germinated and grown overnight at 30° C. under anaerobic conditions in YEPG medium. After about 24 h of growth, 75 μL of the culture was transferred (transfer 1) to each of four flasks that contained 10 mL of YEPG and either had no treatment or were treated with peptide SEQ ID NO:143 (see Table 8 and FIG. 1) at 1 nM, 10 nM or 50 nM. Thereafter, 75 μL of each culture was transferred, at the same time, every 24-48 h to 10 mL of fresh YEPG that contained the same peptide treatment or no treatment. Each culture was stopped after 96 hours of incubation and optical density, pH and ceric ion reactive chemicals were measured. Sequential batch culturing was continued through 5 transfers at which point the untreated culture and those treated with 1 nM and 10 nM of peptide SEQ ID NO:143 had stopped growing (Table 9).
(§4) Effect of peptide SEQ ID NO:143 addition on sequential batch cultures of C. acetobutylicum ATCC 824 grown at 37° C. Spores of C. acetobutylicum ATCC 824 were germinated and grown overnight at 37° C. under anaerobic conditions in YEPG medium that either contained 50 nM of peptide SEQ ID NO:143 or no added peptide. After about 24 h of growth, 10 μL of the untreated culture was transferred (transfer 1) to each of two flasks that contained 10 mL of YEPG with either no treatment or with 50 nM peptide SEQ ID NO:143. At the same time, 10 μL of the culture that was germinated in the presence of peptide SEQ ID NO:143 was also transferred to 10 mL of YEPG that contained 50 nM of peptide SEQ ID NO:143. Thereafter, 10 μL of each culture was transferred, at the same time, every 24-48 h to 10 mL of fresh YEPG that contained the same peptide treatment or no treatment. Each culture was stopped after 72 hours if incubation and optical density, pH and ceric ion reactive chemicals were measured. Sequential batch culturing was continued through 3 transfers at which point the untreated culture and the culture that was germinated and transferred in 50 nM of peptide were still growing, while the culture that was treated with peptide after germination had stopped growing (Table 15 and FIG. 7).

C. acetobutylicum = assay: Estimate of extended serial propagation in continuous culture from sequential batch transfers; design: species or system Clostridium acetobutylicum; settings: dilution rate 0.05/hour, from about 140 hours without peptide
Procedure: Under these experimental conditions, and knowledge of the growth of C. acetobutylicum in culture, it was determined that each sequential transfer was equivalent to about seven bacterial generations ([…], Applied and Environmental Microbiology 59:4198-4202, 1993). […] An estimate of extended serial propagation in continuous culture may be expressed as extended time in continuous culture by taking the dilution rate into account. In continuous culture, the time for one generation is equal to the inverse of the dilution rate.

[2] = tested on: Clostridium acetobutylicum ATCC 824; assay: Growth (optical density at 600 nm) of sequential batch cultures; type: cell-based
Procedure: as §1, §2, §3, §4

[3] = 1 nM peptide, transfer 1, 96 h, 30° C.
[4] = 1 nM peptide, transfer 2, 96 h, 30° C.
[5] = 1 nM peptide, transfer 3, 96 h, 30° C.
[6] = 1 nM peptide, transfer 4, 96 h, 30° C.
[7] = 1 nM peptide, transfer 5, 96 h, 30° C.
[8] = 10 nM peptide, transfer 1, 96 h, 30° C.
[9] = 10 nM peptide, transfer 2, 96 h, 30° C.
[10] = 10 nM peptide, transfer 3, 96 h, 30° C.
[11] = 10 nM peptide, transfer 4, 96 h, 30° C.
[12] = 50 nM peptide added after germination, transfer 1, 72 h, 37° C.
[13] = 50 nM peptide added after germination, transfer 2, 72 h, 37° C.
[14] = 50 nM peptide added after germination, transfer 3, 72 h, 37° C.
[15] = 50 nM peptide, transfer 1, 96 h, 30° C.
[16] = 50 nM peptide, transfer 2, 96 h, 30° C.
[17] = 50 nM peptide, transfer 3, 96 h, 30° C.
[18] = 50 nM peptide, transfer 4, 96 h, 30° C.
[19] = 50-50: germinated and transferred in 50 nM peptide, transfer 1, 72 h, 37° C.
[20] = 50-50: germinated and transferred in 50 nM peptide, transfer 2, 72 h, 37° C.
[21] = 50-50: germinated and transferred in 50 nM peptide, transfer 3, 72 h, 37° C.
[22] = 50-50: spores germinated in 50 nM peptide, transfer 0 (germinated culture), 72 h, 37° C.

SYPGWSW [Peptide SEQ ID NO:143]
Final pH of culture broths [1, 3]: 6.0 | Final pH of culture broths [1, 4]: 4.4 | Final pH of culture broths [1, 5]: 4.4 | Final pH of culture broths [1, 6]: 6.0 | Final pH of culture broths [1, 7]: 6.0 | Final pH of culture broths [1, 8]: 4.4 | Final pH of culture broths [1, 9]: 4.4 | Final pH of culture broths [1, 10]: 4.5 | Final pH of culture broths [1, 11]: 4.5 | Final pH of culture broths ([1]; 10 nM peptide, transfer 5, 96 h, 30° C., listed as SEQ ID NO: 143): 6.0 | Final pH of culture broths ([1]; 10 nM peptide, transfer 5, 96 h, 30° C., listed as SEQ ID NO:143): 5.9 | Final pH of culture broths [1, 12]: 4.4 | Final pH of culture broths [1, 13]: 6.0 | Final pH of culture broths [1, 14]: 5.5 | Final pH of culture broths [1, 15]: 4.4 | Final pH of culture broths [1, 16]: 4.6 | Final pH of culture broths [1, 17]: 4.5 | Final pH of culture broths [1, 18]: 4.4 | Final pH of culture broths ([1]; 50 nM peptide, transfer 5, 96 h, 30° C., listed as SEQ ID NO: 143): 4.3 | Final pH of culture broths ([1]; 50 nM peptide, transfer 5, 96 h, 30° C., listed as SEQ ID NO:143): remained low | Final pH of culture broths [1, 19]: 4.5 | Final pH of culture broths [1, 20]: 3.8 | Final pH of culture broths [1, 21]: 4.6 | Final pH of culture broths [1, 22]: 4.1 | Expected time in continuous culture with peptide (C. acetobutylicum): about 700 hours | Last sequential transfer through which growth was allowed ([2]; 1 nM peptide, 30° C., untreated culture did not grow after the second transfer): third transfer | Optical density at 600 nm of culture broths [2, 3]: 0.005 | Optical density at 600 nm of culture broths [2, 4]: 2.274 | Optical density at 600 nm of culture broths [2, 5]: 2.165 | Optical density at 600 nm of culture broths [2, 6]: 0.044 | Optical density at 600 nm of culture broths [2, 7]: 0.004 | Last sequential transfer through which growth was allowed ([2]; 10 nM peptide, 30° C.): fourth transfer | Optical density at 600 nm of culture broths [2, 8]: 2.001 | Optical density at 600 nm of culture broths [2, 9]: 2.245 | Optical density at 600 nm of culture broths [2, 10]: 2.379 | Optical density at 600 nm of culture broths [2, 11]: 2.266 | Optical density at 600 nm of culture broths ([2]; 10 nM peptide, transfer 5, 96 h, 30° C.): 0.028 | Optical density at 600 nm of culture broths [2, 12]: 1.891 | Optical density at 600 nm of culture broths [2, 13]: 0.011 | Optical density at 600 nm of culture broths [2, 14]: 0.100 | Last sequential transfer through which growth was extended ([2]; 50 nM peptide, 30° C.): fifth transfer | Optical density at 600 nm of culture broths [2, 15]: 1.879 | Optical density at 600 nm of culture broths [2, 16]: 2.089 | Optical density at 600 nm of culture broths [2, 17]: 2.313 | Optical density at 600 nm of culture broths [2, 18]: 2.187 | Optical density at 600 nm of culture broths ([2]; 50 nM peptide, transfer 5, 96 h, 30° C.): 2.173 | Number of sequential transfers compared with a culture without added peptide ([2]; 30° C., sequential batch cultures): at least four more times | Optical density at 600 nm of culture broths [2, 19]: 1.715 | Optical density at 600 nm of culture broths [2, 20]: 1.858 | Optical density at 600 nm of culture broths [2, 21]: 1.485 | Optical density at 600 nm of culture broths [2, 22]: 2.121
